The record followed here is patent US11173151B2, “Substituted triazole derivatives and uses thereof” (BAYER AKTIENGESELLSCHAFT, priority 2017, dated 2021).

The target in one test is T1, human V2 receptor (Homo sapiens, UniProt P30518).
T1 construct: expressed in transfected cells; host or cells: CHO K1 (ATCC) expressing firefly luciferase under a CRE-responsive promoter
The test is described as follows: Cellular in vitro assay for determining vasopressin receptor activity, V2 receptor cell line (CHO, CRE-luciferase). The test is classed as cell-based. Particulars: CHO cell line transfected with human V2 receptor; [Arg8]-vasopressin at EC50 concentration, 3 hours; read-out: IC50 hV2. Here is the method: (§1) B-1. Cellular In Vitro Assay for Determining Vasopressin Receptor Activity
(§2) The identification of agonists and antagonists of the V1a and V2 vasopressin receptors from humans, rats and dogs as well as the quantification of the activity of the compounds of the invention is carried out using recombinant cell lines. These cell lines originally derive from a hamster's ovary epithelial cell (Chinese Hamster Ovary, CHO K1, ATCC: American Type Culture Collection, Manassas, Va. 20108, USA). The test cell lines constitutively express the human, rat or dog V1a or V2 receptors. In case of the Gαq-coupled V1a receptors, cells are also stably transfected with a modified form of the calcium-sensitive photoproteins aequorin (human and rat V1a) or obelin (dog V1a), which, after reconstitution with the cofactor coelenterazine, emit light when there are increases in free calcium concentrations [Rizzuto R, Simpson A W, Brini M, Pozzan T, Nature 358, 325-327 (1992); Illarionov B A, Bondar V S, Illarionova V A, Vysotski E S, Gene 153 (2), 273-274 (1995)]. The resulting vasopressin receptor cells react to stimulation of the recombinantly expressed V1a receptors by intracellular release of calcium ions, which can be quantified by the resulting photoprotein luminescence. The Gs-coupled V2 receptors are stably transfected into cell lines expressing the gene for firefly luciferase under control of a CRE-responsible promoter. Activation of V2 receptors induces the activation of the CRE-responsive promoter via cAMP increase, thereby inducing the expression of firefly luciferase. The light emitted by photoproteins of V1a cell lines as well as the light emitted by firefly luciferase of V2 cell lines corresponds to the activation or inhibition of the respective vasopressin receptor. The bioluminescence of the cell lines is detected using a suitable luminometer [Milligan G, Marshall F, Rees S, Trends in Pharmacological Sciences 17, 235-237 (1996)].
Vasopressin V2 Receptor Cell Lines:
On the day before the assay, the cells are plated out in culture medium (DMEM/F12, 2% FCS, 2 mM glutamine, 10 mM HEPES) in 384-well microtiter plates and kept in a cell incubator (96% humidity, 5% v/v CO2, 37° C.). On the day of the assay, test compounds in various concentrations and the agonist [Arg^8]-vasopressin at EC50 concentration are added together to the wells, and plates are incubated for 3 hours in a cell incubator. Upon addition of the cell lysis reagent Triton™ and the substrate luciferin, luminescence of firefly luciferase is measured in a luminometer.
(§3) Table 1A below lists individual IC50 values for the compounds of the invention (including racemic mixtures as well as separated enantiomers) that were obtained from cell lines transfected with the human V1a or V2 receptor: […]

In a further test the target is T2, human V1a receptor (Homo sapiens, UniProt P37288).
T2 construct: expressed in transfected cells; host or cells: CHO K1 (ATCC), also stably transfected with a modified aequorin
The test is described as follows: Cellular in vitro assay for determining vasopressin receptor activity, V1a receptor cell line (CHO, aequorin luminescence). The test is classed as cell-based. Particulars: for IC50: CHO cell line transfected with human V1a receptor, [Arg]-vasopressin at EC50 concentration, read-out: IC50 hV1a; for ratio IC50 hV2/hV1a: selectivity ratio IC50 hV2 / IC50 hV1a. Here is the method: as §1, §2
Vasopressin V1a Receptor Cell Lines:
On the day before the assay, the cells are plated out in culture medium (DMEM/F12, 2% FCS, 2 mM glutamine, 10 mM HEPES, 5 μg/ml coelenterazine) in 384-well microtiter plates and kept in a cell incubator (96% humidity, 5% v/v CO2, 37° C.). On the day of the assay, test compounds in various concentrations are placed for 10 minutes in the wells of the microtiter plate before the agonist [Arg]-vasopressin at EC50 concentration is added. The resulting light signal is measured immediately in a luminometer.
as §3

T2 sequence (P37288 whole entry): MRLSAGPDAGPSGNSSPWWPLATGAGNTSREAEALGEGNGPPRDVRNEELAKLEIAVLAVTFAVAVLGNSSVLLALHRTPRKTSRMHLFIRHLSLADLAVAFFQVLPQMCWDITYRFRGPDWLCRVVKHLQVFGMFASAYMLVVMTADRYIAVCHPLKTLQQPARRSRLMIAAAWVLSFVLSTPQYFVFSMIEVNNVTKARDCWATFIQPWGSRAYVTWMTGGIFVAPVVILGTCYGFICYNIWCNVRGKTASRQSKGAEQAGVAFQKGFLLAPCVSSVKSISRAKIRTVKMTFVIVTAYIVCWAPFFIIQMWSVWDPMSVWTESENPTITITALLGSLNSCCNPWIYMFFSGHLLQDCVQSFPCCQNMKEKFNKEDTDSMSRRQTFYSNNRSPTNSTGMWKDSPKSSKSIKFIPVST
T1 sequence (P30518 whole entry): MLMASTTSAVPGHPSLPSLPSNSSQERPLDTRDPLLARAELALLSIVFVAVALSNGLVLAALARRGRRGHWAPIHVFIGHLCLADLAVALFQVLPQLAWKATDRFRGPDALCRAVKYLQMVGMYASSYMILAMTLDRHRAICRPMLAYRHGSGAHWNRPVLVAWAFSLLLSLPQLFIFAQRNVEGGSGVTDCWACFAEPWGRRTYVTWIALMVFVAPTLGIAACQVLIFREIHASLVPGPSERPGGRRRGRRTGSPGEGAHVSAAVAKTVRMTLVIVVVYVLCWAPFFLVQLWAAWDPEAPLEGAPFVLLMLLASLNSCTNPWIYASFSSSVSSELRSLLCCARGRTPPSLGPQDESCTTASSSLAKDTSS

On to `CC1(CNC(=O)c2ccccc2-n2cnc(Cn3nc(-c4ccc(Cl)cc4)n(C[C@H](O)C(F)(F)F)c3=O)n2)CCCO1` (mixture of isomers) [Example 202, 2-[3-({3-(4-Chlorophenyl)-5-oxo-4-[(2S)-3,3,3-trifluoro-2-hydroxypropyl]-4,5-dihydro-1H-1,2,4-triazol-1-yl}methyl)-1H-1,2,4-triazol-1-yl]-N-{[2-methyltetrahydrofuran-2-yl]methyl}benzamide], for which the IC50 was determined as 0.00405 µM at human V2 receptor and 0.0043 µM at human V1a receptor. Further, the “ratio IC50 hV2/hV1a” value on human V1a receptor is 0.9.
For `CCC(C)NC(=O)c1ccccc1-n1cnc(Cn2nc(-c3ccc(Cl)cc3)n(C[C@H](O)C(F)(F)F)c2=O)n1` (mixture of isomers) [Example 204, N-[Butan-2-yl]-2-[3-({3-(4-chlorophenyl)-5-oxo-4-[(2S)-3,3,3-trifluoro-2-hydroxypropyl]-4,5-dihydro-1H-1,2,4-triazol-1-yl}methyl)-1H-1,2,4-triazol-1-yl]benzamide] the same measures were 0.115 µM, 0.00125 µM and 92.0.
Turning to `O=C(NC1CCOC1)c1ccccc1-n1cnc(Cn2nc(-c3ccc(Cl)cc3)n(C[C@H](O)C(F)(F)F)c2=O)n1` (mixture of isomers) [Example 208, 2-[3-({3-(4-Chlorophenyl)-5-oxo-4-[(2S)-3,3,3-trifluoro-2-hydroxypropyl]-4,5-dihydro-1H-1,2,4-triazol-1-yl}methyl)-1H-1,2,4-triazol-1-yl]-N-[tetrahydrofuran-3-yl]benzamide], the values for the IC50 on human V2 receptor and on human V1a receptor were 0.0955 µM and 0.0024 µM, respectively. In addition, at human V1a receptor, the “ratio IC50 hV2/hV1a” value is 39.8.
As for `CC1CCCC(NC(=O)c2ccccc2-n2cnc(Cn3nc(-c4ccc(Cl)cc4)n(C[C@H](O)C(F)(F)F)c3=O)n2)C1` (mixture of isomers) [Example 224, 2-[3-({3-(4-Chlorophenyl)-5-oxo-4-[(2S)-3,3,3-trifluoro-2-hydroxypropyl]-4,5-dihydro-1H-1,2,4-triazol-1-yl}methyl)-1H-1,2,4-triazol-1-yl]-N-(3-methylcyclohexyl)benzamide], on human V2 receptor, the IC50 came out at 0.145 µM. Besides, on human V1a receptor, the IC50 was 0.0126 µM and the “ratio IC50 hV2/hV1a” value stood at 11.5.
In the same order, the values of `O=C(NC1CCOC1=O)c1ccccc1-n1cnc(Cn2nc(-c3ccc(Cl)cc3)n(C[C@H](O)C(F)(F)F)c2=O)n1` (mixture of isomers) [Example 231, 2-[3-({3-(4-Chlorophenyl)-5-oxo-4-[(2S)-3,3,3-trifluoro-2-hydroxypropyl]-4,5-dihydro-1H-1,2,4-triazol-1-yl}methyl)-1H-1,2,4-triazol-1-yl]-N-[(3S)-2-oxotetrahydrofuran-3-yl]benzamide] are 0.775 µM, 0.00305 µM and 254.1.
Take `COC1CCCN(C(=O)c2ccccc2-n2cnc(Cn3nc(-c4ccc(Cl)cc4)n(C[C@H](O)C(F)(F)F)c3=O)n2)C1` (mixture of isomers) [Example 269, 5-(4-Chlorophenyl)-2-{[1-(2-{[3-methoxypiperidin-1-yl]carbonyl}phenyl)-1H-1,2,4-triazol-3-yl]methyl}-4-[(2S)-3,3,3-trifluoro-2-hydroxypropyl]-2,4-dihydro-3H-1,2,4-triazol-3-one]: the results for the 50% inhibitory concentration (IC50) on human V2 receptor and at human V1a receptor were 1.05 µM and 0.0025 µM, respectively. For the same compound, the “ratio IC50 hV2/hV1a” value at human V1a receptor is 422.0.
For the compound `CC1SCCN1C(=O)c1ccccc1-n1cnc(Cn2nc(-c3ccc(Cl)cc3)n(C[C@H](O)C(F)(F)F)c2=O)n1` (mixture of isomers) [Example 270, 5-(4-Chlorophenyl)-2-{[1-(2-{[2-methyl-1,3-thiazolidin-3-yl]carbonyl}phenyl)-1H-1,2,4-triazol-3-yl]methyl}-4-[(2S)-3,3,3-trifluoro-2-hydroxypropyl]-2,4-dihydro-3H-1,2,4-triazol-3-one], at human V2 receptor, the IC50 turned out to be 1.44 µM. Besides, on human V1a receptor, the concentration for half-maximal inhibition (IC50) turned out to be 0.0021 µM and the “ratio IC50 hV2/hV1a” value is recorded as 685.7.
Turning to `CN1CCC(N(C)C(=O)c2ccccc2-n2cnc(Cn3nc(-c4ccc(Cl)cc4)n(C[C@H](O)C(F)(F)F)c3=O)n2)C1` (mixture of isomers) [Example 274, 2-[3-({3-(4-Chlorophenyl)-5-oxo-4-[(2S)-3,3,3-trifluoro-2-hydroxypropyl]-4,5-dihydro-1H-1,2,4-triazol-1-yl}methyl)-1H-1,2,4-triazol-1-yl]-N-methyl-N-[1-methylpyrrolidin-3-yl]benzamide], the concentration for half-maximal inhibition (IC50) at human V2 receptor stood at 9.65 µM; at human V1a receptor, 0.022 µM. Further, the “ratio IC50 hV2/hV1a” value on human V1a receptor is listed as 438.6.
Regarding `CC1CCCN(C(=O)c2ccccc2-n2cnc(Cn3nc(-c4ccc(Cl)cc4)n(C[C@H](O)C(F)(F)F)c3=O)n2)C1C` (mixture of isomers) [Example 275, 5-(4-Chlorophenyl)-2-[(1-{2-[(2,3-dimethylpiperidin-1-yl)carbonyl]phenyl}-1H-1,2,4-triazol-3-yl)methyl]-4-[(2S)-3,3,3-trifluoro-2-hydroxypropyl]-2,4-dihydro-3H-1,2,4-triazol-3-one], the half-inhibitory concentration (IC50) at human V2 receptor came out at 1.24 µM. At human V1a receptor, the IC50 stood at 0.00255 µM and the “ratio IC50 hV2/hV1a” value came out at 484.3.
Regarding `CC1C(=O)NCCN1C(=O)c1ccccc1-n1cnc(Cn2nc(-c3ccc(Cl)cc3)n(C[C@H](O)C(F)(F)F)c2=O)n1` (mixture of isomers) [Example 280, 4-{2-[3-({3-(4-Chlorophenyl)-5-oxo-4-[(2S)-3,3,3-trifluoro-2-hydroxypropyl]-4,5-dihydro-1H-1,2,4-triazol-1-yl}methyl)-1H-1,2,4-triazol-1-yl]benzoyl}-3-methylpiperazin-2-one], the IC50 on human V2 receptor is 10.1 µM. In addition, on human V1a receptor, the IC50 came out at 0.0785 µM and the “ratio IC50 hV2/hV1a” value amounted to 129.3.
On to `CC1COCCN1C(=O)c1ccccc1-n1cnc(Cn2nc(-c3ccc(Cl)cc3)n(C[C@H](O)C(F)(F)F)c2=O)n1` (mixture of isomers) [Example 282, 5-(4-Chlorophenyl)-2-{[1-(2-{[3-methylmorpholin-4-yl]carbonyl}phenyl)-1H-1,2,4-triazol-3-yl]methyl}-4-[(2S)-3,3,3-trifluoro-2-hydroxypropyl]-2,4-dihydro-3H-1,2,4-triazol-3-one], for which the IC50 on human V2 receptor worked out at 2.35 µM. Moreover, at human V1a receptor, the half-inhibitory concentration (IC50) was determined as 0.00235 µM and the “ratio IC50 hV2/hV1a” value is reported as 1000.0.
In the same order, the values of `CC1CN(C(=O)c2ccccc2-n2cnc(Cn3nc(-c4ccc(Cl)cc4)n(C[C@H](O)C(F)(F)F)c3=O)n2)CCO1` (mixture of isomers) [Example 283, 5-(4-Chlorophenyl)-2-{[1-(2-{[2-methylmorpholin-4-yl]carbonyl}phenyl)-1H-1,2,4-triazol-3-yl]methyl}-4-[(2S)-3,3,3-trifluoro-2-hydroxypropyl]-2,4-dihydro-3H-1,2,4-triazol-3-one] are 7.5 µM, 0.00605 µM and 1239.7.
For `CC(O)CNC(=O)c1ccccc1-n1cnc(Cn2nc(-c3ccc(Cl)cc3)n(C[C@H](O)C(F)(F)F)c2=O)n1` (mixture of isomers) [Example 292, 2-[3-({3-(4-Chlorophenyl)-5-oxo-4-[(2S)-3,3,3-trifluoro-2-hydroxypropyl]-4,5-dihydro-1H-1,2,4-triazol-1-yl}methyl)-1H-1,2,4-triazol-1-yl]-N-[2-hydroxypropyl]benzamide] the same measures were 0.0645 µM, 0.00295 µM and 21.9.
